We go through seven compounds from US5656726A, “Peptide inhibitors of urokinase receptor activity” (Chiron Corporation, priority 1995, dated 1997).

The test system of assay [1] is SaOS-2 osteosarcoma cell line. Conditions: Rabbani et al.; cited from earlier work.
A further assay relates to U937 cells. As to conditions: Rabbani et al.; cited from earlier work.
The target of assay [2] is T1, substance P receptor ("SPR") (Homo sapiens, UniProt P25103).
T1 construct: expressed in transfected cells; host or cells: Sf9 insect cells
T1 sequence (P25103 whole entry, species assumed): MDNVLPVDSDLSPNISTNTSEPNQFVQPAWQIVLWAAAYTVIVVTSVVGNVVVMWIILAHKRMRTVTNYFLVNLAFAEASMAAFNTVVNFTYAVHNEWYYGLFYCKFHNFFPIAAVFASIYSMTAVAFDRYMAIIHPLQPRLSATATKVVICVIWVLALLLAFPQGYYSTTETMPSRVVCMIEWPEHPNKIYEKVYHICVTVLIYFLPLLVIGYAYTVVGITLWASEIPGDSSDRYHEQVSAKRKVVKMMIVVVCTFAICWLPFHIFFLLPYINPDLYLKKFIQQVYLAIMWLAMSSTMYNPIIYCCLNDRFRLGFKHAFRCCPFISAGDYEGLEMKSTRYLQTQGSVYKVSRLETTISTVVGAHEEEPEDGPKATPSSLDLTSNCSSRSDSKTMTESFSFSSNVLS
The experiment in a line: Recovery of phage on Sf9 cells expressing substance P receptor (control). The class given is binding. Conditions: phage displaying the peptide. As to the method: (§1) 3.) The phage selected in round 2 were reselected on SI9 cells expressing fluPAR (day 2 post-infection) as described for round 1 (2.8×10^10 phage on 10^6 St9 cells). The yield of binding phage from this round was 5.40% (1.5×10^9 pfu), indicating a substantial enrichment in binding phage. Sample phage from the urea eluate were cloned, and their DNAs isolated and sequenced. Binding was assayed against Sf9 cells expressing fluPAR, and Sf9 cells expressing substance P receptor ("SPR," as a control).

Assay [3] has as its target T2, full length huPAR ("fluPAR") (Homo sapiens, UniProt Q03405).
T2 construct: Sf9 cells expressing full length huPAR ("fluPAR", day 2 post infection); expressed in transfected cells; host or cells: Sf9 insect cells, infected (day 2 post infection)
The experiment in a line: Recovery of phage on Sf9 cells expressing full length huPAR. The class given is binding. As to the method:
1.) 15 mer phage (2.5×10^10) prepared as described above were selected by coincubation with 10^6 Sf9 cells expressing full length huPAR ("fluPAR", day 2 post infection) at room temperature for 60 minutes in Grace's medium with 2% nonfat milk. Binding phage were eluted with 6M urea (pH 2.2), the pH neutralized by adding 2M Tris-HCl, and assayed. The yield of binding phage was 0.0013% (3.3×10^5 pfu). The phage were amplified on solid agar plates as plaques, eluted with Tris-buffered saline, and precipitated with polyethylene glycol.
as §1

In a further assay the target is uPAR (Homo sapiens, UniProt Q03405). As to conditions: Appella et al., cited from earlier work.
uPAR, sequence (Q03405 23-335): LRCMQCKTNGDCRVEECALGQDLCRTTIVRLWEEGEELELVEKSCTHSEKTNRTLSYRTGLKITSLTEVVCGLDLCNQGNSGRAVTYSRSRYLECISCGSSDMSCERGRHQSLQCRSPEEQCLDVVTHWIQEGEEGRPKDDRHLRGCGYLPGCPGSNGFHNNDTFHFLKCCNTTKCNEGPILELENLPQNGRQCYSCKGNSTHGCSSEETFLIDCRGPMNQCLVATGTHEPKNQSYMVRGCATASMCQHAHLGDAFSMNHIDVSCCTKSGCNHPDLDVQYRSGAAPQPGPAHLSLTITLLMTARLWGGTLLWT
For assay [4], the target named is T3, recombinant human urokinase receptor (truncated, soluble; suPAR) (Homo sapiens, UniProt Q03405).
T3 construct: expressed as a truncated, soluble molecule as described previously for mouse L-cells (Masucci et al., J Biol Chem (1991) 266:8655); made in house
T3 sequence (Q03405 23-299 limits assumed): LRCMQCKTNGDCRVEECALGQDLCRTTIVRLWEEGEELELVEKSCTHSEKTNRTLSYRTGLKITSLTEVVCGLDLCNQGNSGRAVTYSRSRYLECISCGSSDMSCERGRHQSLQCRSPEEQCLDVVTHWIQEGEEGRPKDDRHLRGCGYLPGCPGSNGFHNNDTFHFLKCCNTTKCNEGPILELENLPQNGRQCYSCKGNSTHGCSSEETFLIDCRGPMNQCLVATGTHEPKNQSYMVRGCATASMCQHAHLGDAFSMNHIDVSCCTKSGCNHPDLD
The experiment in a line: 125I-ATF competition binding on immobilized soluble recombinant human urokinase receptor. As to conditions: synthesized peptide; assay performed at 100 pM ATF, 0.3 μg/mL suPAR in 200 μL (starred values); read-out: Affinity.

Ends that are not written are not given here. Peptide text beside a SMILES is read from it.

T2 sequence (Q03405 23-335): as the sequence (Q03405 23-335) above

For “fucosylated EGF-like domain: fucosylated EGF-like domain (uPA4-43, produced by cleavage from pro-uPA) (LHQVPSNCDCLNGGT(fucose)CVSNKYFSNIHWCNCPKKFGGQHCE; not fully specified; cysteine pairing not given here; UniProt P00749 24-63, looked up, fragment)”, the mitogenic activity entry in assay [1] was “mitogenic”; in the assay on U937 cells, “Neither fucosylated nor non-fucosylated EGF-like domain was mitogenic”.

Take “AECLNGGTAVSNKYFSNIHWCN [Positive control, residues 13-32 of the EGFlike domain of urokinase (not selected from library)]”: the “% Recovery SPR” value in assay [2] is recorded as 0.008%. For the same compound, the “% Recovery huPAR” value in assay [3] (phage displaying the peptide, Sf9 cells expressing fluPAR) is given as 6.8%. Besides, the “Specificity (uPAR/SPR)” value in assay [3] (ratio of % recovery huPAR to SPR) worked out at 857.

Consider “uPA12-32: critical domain alone, residues 12-32 of the EGF-like domain of uPA (DCLNGGTCVSNKYFSNIHWCN; UniProt P00749 32-52, looked up, fragment)”, for which, in the assay with uPAR (J. Biol Chem (1987), read-out: affinity for uPAR), the Kd was 0.04 µM. Besides, the “affinity relative to intact ATF (fold less)” value with uPAR was “about 100 fold”.

Regarding `CC[C@H](C)[C@H](NC(=O)[C@H](CCC(=O)O)NC(=O)[C@H](C)N)C(=O)N[C@@H](CC(C)C)C(=O)N[C@@H](CC(N)=O)C(=O)N[C@@H](Cc1ccccc1)C(=O)N1CCC[C@H]1C(=O)N[C@@H](CC(C)C)C(=O)N[C@@H](Cc1c[nH]c2ccccc12)C(=O)N[C@@H](Cc1c[nH]cn1)C(=O)N[C@@H](CCC(=O)O)C(=O)N1CCC[C@H]1C(=O)N[C@@H](CC(C)C)C(=O)N[C@@H](Cc1c[nH]c2ccccc12)C(=O)N[C@@H](CO)C(=O)N[C@H](C(=O)N[C@@H](CCC(=O)O)C(N)=O)[C@@H](C)O` (H-AEILNFPLWHEPLWSTE-NH2), the Kd in assay [4] is 15 µM.

With `CSCC[C@H](NC(=O)[C@H](Cc1c[nH]c2ccccc12)NC(=O)[C@H](CC(C)C)NC(=O)[C@H](CC(=O)O)NC(=O)[C@H](CC(C)C)NC(=O)[C@H](CCC(=O)O)NC(=O)[C@H](C)N)C(=O)N[C@@H](CCCNC(=N)N)C(=O)N[C@@H](Cc1c[nH]cn1)C(=O)N[C@@H](Cc1ccc(O)cc1)C(=O)N1CCC[C@H]1C(=O)N[C@@H](CC(C)C)C(=O)N[C@@H](CO)C(=O)N[C@@H](Cc1ccccc1)C(=O)N[C@@H](CO)C(=O)N[C@@H](CC(N)=O)C(=O)N[C@@H](CCCNC(=N)N)C(N)=O` (H-AELDLWMRHYPLSFSNR-NH2), in assay [4], the Kd came out at 0.8 µM.

On to `CSCC[C@H](NC(=O)[C@@H]1CCCN1C(=O)[C@H](CCC(=O)O)NC(=O)[C@H](C)N)C(=O)N1CCC[C@H]1C(=O)N[C@@H](Cc1c[nH]cn1)C(=O)N[C@@H](CO)C(=O)N[C@@H](CC(C)C)C(=O)N[C@@H](CC(N)=O)C(=O)N[C@@H](Cc1ccccc1)C(=O)N[C@@H](CO)C(=O)N[C@@H](CCC(N)=O)C(=O)N[C@@H](Cc1ccc(O)cc1)C(=O)N[C@@H](CC(C)C)C(=O)N[C@@H](Cc1c[nH]c2ccccc12)C(=O)N[C@@H](Cc1ccc(O)cc1)C(=O)N[C@H](C(N)=O)[C@@H](C)O` (H-AEPMPHSLNFSQYLWYT-NH2), for which, in assay [4], the Kd amounted to 0.015 µM.

As to `CC[C@H](C)[C@H](NC(=O)[C@H](CCC(=O)O)NC(=O)[C@H](C)N)C(=O)N[C@@H](CCCCN)C(=O)N[C@H](C(=O)N[C@@H](CC(=O)O)C(=O)N[C@@H](CCC(=O)O)C(=O)N[C@@H](CCCCN)C(=O)N[C@@H](CCSC)C(=O)NCC(=O)N[C@@H](CC(C)C)C(=O)N[C@@H](Cc1c[nH]c2ccccc12)C(=O)N[C@@H](CC(=O)O)C(=O)N[C@@H](CC(C)C)C(=O)N[C@@H](Cc1ccc(O)cc1)C(=O)N[C@@H](CO)C(=O)N[C@@H](CCSC)C(N)=O)[C@@H](C)O` (H-AEIKTDEKMGLWDLYSM-NH2), the Kd in assay [4] was 25 µM.
